{"source": "patent US8716180B2", "about": "(priority 2005, dated 2014)", "system": "deoxynivalenol (DON)", "set-up": "species or system winter wheat", "details": "in vivo", "data": [{"smiles": "N#Cc1c[nH]cc1-c1cccc2c1OC(F)(F)O2", "note": "[Lot B, fludioxonil]", "values": [{"measurement": "Amount of DON (deoxynivalenol) in the ear of wheat", "result": 0, "unit": "ppb"}]}]}
